US10053455B2, “Diazaspiroalkaneone-substituted oxazole derivatives as spleen tyrosine kinase inhibitors” (AB SCIENCE, priority 2014, dated 2018)
pIC50: −log10 of the molar value. Like-named read-outs stand apart in the source and are kept apart here.

Experiments:
[1] = molecular target: TEL-SYK (Homo sapiens, UniProt P43405); assay: Cell-based proliferation assay on BaF3 model, TEL-SYK
Method: Cell-based proliferation and viability assay CellTiter-Bleue cell-based survival/proliferation assay (Promega G8080) was performed on BaF3 models.
A total of 1.10^4 cells/well/50 μl were seeded in a 96-wells plate. Treatment was initiated by addition of a 2× drug solution of ½ serial dilutions ranging from 0 to 10 μM. Cells were grown for 48-72 h at 37° C. and then incubated with 10 μl/well of Promega CellTiter-Bleue reagent for 4 h at 37° C. The amount of formazan dye formed was quantified by its absorbance at 450 nm using a scanning multiwell spectrophotometer (POLARstar Omega, BMG labtech, France). A blank well without cells was used as a background control for the spectrophotometer and all assays were performed in duplicates and the experiments were repeated at least twice.

[2] = test system: IL6; assay: FcεRI and Kit-induced IL6 cytokine release in BMMCs; type: cell-based, C57BL/6J mice
Method: Murine bone marrow mast cells (BMMCs) are obtained by flushing bone marrow cells from the femurs of C57BL/6J mice, and then cultured for 3-4 weeks in RPMI containing mouse recombinant IL-3 (30 ng/ml). Cells were sensitized overnight in IL3-depleted culture medium with 0.1-0.2 μg/ml anti-DNP-IgE (Sigma-Aldrich D8406). Cells were preincubated with inhibitors for 30 min, and then stimulated with 10 ng/ml antigen (Ag) and/or Stem Cell Factor (SCF) (30 ng/ml). The cells were incubated for 6 h. The supernatants were harvested, and the cytokine content measured using CISBIO IL6 and TNFα HTRF assay (cat#63ADKEBU043 and 6FMTNPEB respectively).

[3] = test system: murine model of asthma; assay: Mouse model of asthma: eosinophils recruitment in bronchio-alveolar lavage; type: in vivo, Balb/c male mice
Method: Balb/c male mice, 8 weeks old, were purchased from Janvier (Le Genest-Saint-Isle; FRANCE) and bred in the animal facility for 4 weeks. Drugs were dissolved in drinking solvent (80% water; 10% Tween 80 and 10% isopropanediol). It was aliquoted and stored at −20° C. Each mouse received drugs twice a day. The weight of animals was calculated before and after treatment.
Mice, 9 weeks of age, were sensitized with 50 μg of ovalbumin (Sigma-Aldrich, Germany) adsorbed to 2 mg Al(OH)3 (Prolabo, France) and diluted in physiological saline (0.9% NaCl). Ovalbumin was injected intraperitoneally on days 1 and 7. Sensitization was followed by intranasal challenges with 10 μg of ovalbumin diluted in 0.9% NaCl, each day from day 18 to day 21. On days 17 to 21, animals treated with drugs received 100 μl of a solution at 15 mg/ml, at 7.5 mg/ml or at 3.75 mg/ml administered per os twice a day during 5 days. These treatments corresponded to concentration of 60 mg/mouse kg, 30 mg/mouse kg and 15 mg/mouse kg respectively.
Bronchio-alveolar lavage (BAL) was performed after the animals were disconnected from the FlexiVent®. The airways were lavaged with 5 ml (10 times 0.5 ml) ice cold 0.9% NaCl 2.6 mM EDTA. BAL samples were centrifuged at 1200 rpm for 5 minutes at 4° C. Pellet cells were collected and erythrocytes lysed by adding 1.5 ml deionized water for 30 seconds. After neutralization with 0.5 ml of 0.6M KCl, cells were centrifuged at 1200 rpm for 5 minutes at 4° C. BAL samples were used to count the total cell number and to perform cytospins (shandon, Pontoise). Cell types were identified by morphological criteria after Hemacolor (Merck) staining.
Mice were sensitized and challenged with ovalbumin as described in protocol assays above. The mice were distributed in groups of 5-6 animals that were treated twice daily with 7.5 to 60 mg/Kg of anti-SYK/KIT drugs (PO).

[4] = test system: human cardiomyocytes; assay: Intracellular ROS in human cardiomyocytes (CM-H2DCFDA); type: cell-based; conditions: 10 μM, 8 hours
Method: 2×10^3 human cardiomyocytes (Promocell C-12810) or 4×10^4 rat neonatal cardiac myocytes (R-CM-561 Lonza) were seeded per well of a 96-well plate (black wall for fluorimetry usage (655090 Greiner Bio one)) 24 hours before drug treatment. Treatment was initiated by addition of a drug solution for a 10 μM final concentration. Doxorubicin was used at 5 μM as positive control for the induction of ROS. After 8 hours treatment with drugs, cells were loaded with 10 μM of CM-H2DCFDA (C6827 Invitrogen) for 1 hour, followed by 2 washes in PBS. CM-H2DCFDA is a membrane permeable reagent that can be enzymatically converted to dichlorodihydrofluorescein (DCF) in the presence of ROS. Fluorescent DCF was detected using a fluorescence spectrophotometer (BMG Labtech) with excitation of 485 nm and emission of 560 nm. The results were expressed as a relative percent of DCF-fluorescence in control cells.
Monitoring drug-induced increase in the production of reactive oxygen species (ROS) in cardiomyocyte may be important to predict the cardiotoxic side effects of a drug (Table 11). The production of ROS in human and rat cardiomyocytes was studied following 8 hours drug treatment at concentration of 10 μM. The results were expressed as a percent relative to the production of ROS induced by the cardiotoxic chemotherapeutic agent doxorubicin (100%).

[5] = Early bioavailability determination (plasma PK); type: in vivo, Sprague Dawley rats; conditions: rat; for AUC: read-out: AUC24
Method: Early screen was conducted to estimate plasma concentrations of test compounds obtained after oral or intravenous administration to Sprague Dawley rats. DMSO was used as vehicle for oral and intravenous administration. In short, 4 male Sprague Dawley rats around 5 weeks old were used. Drugs were administered PO (10 mg/kg) or IV (2 mg/kg). Blood samples were collected at defined time schedule and analysed using LC-MS/MS determination for PK parameters calculations.

[6] = male, Sprague Dawley, plasma, IV, 2 mg/kg, mean
[7] = male, Sprague Dawley, plasma, PO, 10 mg/kg, mean

For Cc1ccnc(Nc2cccc(-c3cnc(N4CCNC(=O)C45CC5)o3)c2)n1 [Compound 001, 4-{5-[3-(4-Methyl-pyrimidin-2-ylamino)-phenyl]-oxazol-2-yl}-4,7-diaza-spiro[2.5]octan-8-one], the pIC50 ([1]; read-out: Kinase activity profile IC50 Tel-Syk) was 6.57, the pIC50 ([1]; read-out: TEL-SYK IC50) was 6.57 and the “IL6 Cytokine Release (% relative to control Ag + SCF)” value ([2]; Ag + SCF + 0.01 μM of compound) was 89%. For the same compound, the “IL6 Cytokine Release (Relative Fluorescence Units)” value ([2]; Ag + SCF + 0.01 μM of compound) was 756.5 Relative Fluorescence Units, the “IL6 Cytokine Release (% relative to control Ag + SCF)” value ([2]; Ag + SCF + 0.1 μM of compound) was 29% and the “IL6 Cytokine Release (Relative Fluorescence Units)” value ([2]; Ag + SCF + 0.1 μM of compound) was 249 Relative Fluorescence Units. The “IL6 Cytokine Release (% relative to control Ag + SCF)” value ([2]; Ag + SCF + 1 μM of compound) was 6%, the “IL6 Cytokine Release (Relative Fluorescence Units)” value ([2]; Ag + SCF + 1 μM of compound) was 54 Relative Fluorescence Units and the pIC50 ([2]; Mus musculus, BMMC, Ag + SCF stimulated BMMCs, read-out: IL-6 release IC50) was roughly 7.30. For the same compound, the “Percentage of Eosinophils recruitment in Bronchio-alveolar lavage (BAL)” value ([3]; Experiment #2, 2 × 15 mg/kg/day PO) was −14%, the “Percentage of Eosinophils recruitment in Bronchio-alveolar lavage (BAL)” value ([3]; Experiment #2, 2 × 30 mg/kg/day PO) was −47% and the “ROS production, activity relative to doxorubicine (100%), Hu-CM” value [4] was 0%. It also gave a Cl ([5]; PO, 10 mg/kg, mean) of 17 mL/min/kg, a Vd ([5]; PO, 10 mg/kg, mean) of 2.9 L/kg and a Cmax [5, 6] of 869 ng/mL. For the same compound, the Tmax [5, 6] was 0.083 h, the clearance [5, 6] was 15 mL/min/kg and the half-life [5, 6] was 0.6 h. The AUC [5, 6] was 1060 ng·h/mL, the Vd ([5]; male, Sprague Dawley, plasma, IV, 2 mg/kg, mean, read-out: Vd) was 0.9 L/kg and the bioavailability ([5]; male, Sprague Dawley, plasma, PO 10 mg/kg vs IV 2 mg/kg, read-out: F24 (absolute bioavailability)) was 97.5%. For the same compound, the Cmax [5, 7] was 122 ng/mL, the Tmax [5, 7] was 3 h and the half-life [5, 7] was 2.1 h. It also gave an AUC [5, 7] of 1030 ng·h/mL.
